{
  "source": "patent US11173140B2",
  "about": "“Dosing regimens of PKC activators” (COGNITIVE RESEARCH ENTERPRISES, INC., priority 2015, dated 2021)",
  "tested_on": "PSD-95",
  "assay": "Brain PSD-95 by Western Blot after i.v. bryostatin dosing regimens",
  "type": "in vivo, mice",
  "conditions": "for PSD-95 (% of Control): mouse brain, 1 h after last dose",
  "method": "The dose of bryostatin administered is reflected by the number above each bar, while the number within each bar indicates the number of consecutive weeks mice receive a single weekly dose of bryostatin. Control mice were injected with vehicle. PSD-95 was measured in mouse brain by Western Blot 1 h after the last dose. (Mean±SEM, n=3 except Cage 23 n=2, 2-tailed t-test).\nMouse studies were performed using bryostatin-i in accordance with the protocol described below. The following metrics were used to evaluate dosing regimens: induction of brain postsynaptic anchoring protein PSD-95, upregulation of BDNF levels in brain, minimal downregulation of PKC-ε levels, and elevation of brain and plasma concentrations of bryostatin. Groups of 2-3 mice were formed and housed in an approved research animal facility. Water was give ad libitum. A first study involved three groups of mice with animals in each group dosed weekly for 1, 2, 3, or 6 consecutive weeks. Each group had its own control group containing the same number of mice. In this study, mice in the first, second and third groups received an intravenous (i.v.) injection of 10 μg/m^2, 15 μg/m^2, and 25 μg/m^2 dose of bryostatin respectively. For each dose, mice in that group received a single injection of bryostatin weekly for predetermined number of consecutive weeks. Following dosing, mice were sacrificed and the blood and brain of each animal was collected for further analysis.\nCells were harvested in homogenizing buffer containing 10 mM Tris-Cl (pH 7.4), 1 mM PMSF (phenylmethylsulfonyl fluoride), 1 mM EGTA, 1 mM EDTA. 50 mM NaF, and 20 μM leupeptin and were lysed by sonication. The homogenate was centrifuged at 100,000×g for 15 min at 4° C. to obtain the cytosolic fraction (supernatant) and membrane (pellet). The pellet was resuspended in the homogenizing buffer by sonication. Protein concentration was measured using the Coomassie Plus (Bradford) Protein Assay kit (Pierce, USA). Following quantification, 20 μg of protein from each sample was subjected to SDS-PAGE analysis in 4-20% gradient Tris-Glycine gel (Invitrogen, USA). The separated protein was then transferred to nitrocellulose membrane. The membrane was blocked with BSA at room temperature for 15 min and was incubated with primary antibody over night at 4° C. After the incubation, it was washed three times with TBS-T (Tris Buffered saline-Tween 20) and further incubated with alkaline phosphatase conjugated secondary antibody (Jackson Immunoresearch Laboratories. USA) at 1:10,000 dilution for 45 min. The membrane was finally washed three times with TBS-T and developed using the 1-step NBT-BCIP substrate (Pierce, USA). Western Blot was imaged in the Image Quant RT-ECL (GE Life Sciences, Piscataway, N.J.) and densitometric quantification was performed using the IMAL software (Blanchette Rockefeller Neurosciences institute, Morgantown, W. Va.). For translocation assays, PKC activation was represented as the percentage of total protein in the membrane (membrane/cytosol+membrane).\nC57B/6 male mice weighing between 19-21 grams were obtained from Charles River and housed in cages, 1 mouse/cage in a vivarium at the Blanchette Rockefeller Neurosciences institute. Animals were allowed access to water ad libitum.\nIn these studies, bryostatin was administered intravenously (i.v.) by injection into the tail vein of a mouse. Stock solutions of bryostatin were prepared in dimethyl sulfoxide (DMSO). Prior to administration to a mouse, the stock DMSO solution of bryostatin was diluted to a predetermined concentration by dilution with phosphate buffered saline/saline (PBS/saline).\nThree different dosing regimens (injection schedules) were compared. The dosing regimens tested were weekly dosing, dosing every other week (alternating weeks), and spaced or intermittent dosing. […]",
  "data": [
    {"smiles": "CCC/C=C/C=C/C(=O)O[C@H]1/C(=C/C(=O)OC)C[C@H]2C[C@H]([C@@H](C)O)OC(=O)C[C@H](O)C[C@@H]3C[C@H](OC(C)=O)C(C)(C)[C@](O)(C[C@@H]4C/C(=C/C(=O)OC)C[C@H](/C=C/C(C)(C)[C@]1(O)O2)O4)O3", "note": "[Bryostatin-1]", "values": [
      {"measurement": "amounts of PSD-95", "setting": "mice, 25 μg/m^2 i.v. once per week, three weeks", "value": "higher amounts"},
      {"measurement": "PSD-95 (% of Control)", "setting": "cage 7: 10 μg/m^2 i.v. once weekly, 6 weeks", "value": "108.176 % of Control"},
      {"measurement": "PSD-95 (% of Control)", "setting": "cage 17: 15 μg/m^2 i.v. once weekly, 3 weeks", "value": "126.969 % of Control"},
      {"measurement": "PSD-95 (% of Control)", "setting": "cage 21: 25 μg/m^2 i.v., 1 week", "value": "99.453 % of Control"},
      {"measurement": "PSD-95 (% of Control)", "setting": "cage 23: 25 μg/m^2 i.v. once weekly, 2 weeks", "value": "107.570 % of Control"},
      {"measurement": "PSD-95 (% of Control)", "setting": "cage 25: 25 μg/m^2 i.v. once weekly, 3 weeks", "value": "171.203 % of Control"}
    ]}
  ]
}
